The values below come from patent publication US11795204B2 (Zealand Pharma A/S, priority 2012, dated 2023).

Square brackets hold non-standard residues; d marks the D form. Peptide text beside a SMILES is read from it. Dab = NCC[C@H](N)C(=O)O; Aib = CC(C)(N)C(=O)O Where only a bound is given, the exact number is not on record here.

The nature of one data set: physchem. The following applies: pH 7.5. How it is done:
A stock solution of the test peptide (2 mg/ml; determined by measurement of the absorption of the solution at 280 nm, and using the theoretical extension coefficient based on the content of tryptophan and tyrosine in the peptide) in demineralized water adjusted to pH 2.5 with HCl was prepared, and aliquots were diluted 1:1 in 100 mM acetate buffer (pH 4.0) and 100 mM phosphate buffer (pH 7.5), respectively, and loaded in a standard flat-bottom, non-sterile 96-well UV Microplate. The absorbance of samples (single samples, n=1) at 280 and 325 nm was measured in an absorbance-based plate reader, which was preheated to ambient temperature.

The next data set addresses T1, human Glucagon-R (Homo sapiens, UniProt P47871).
T1 construct: expressed in transfected cells
In words: Glucagon receptor assay (cAMP induction, AlphaScreen). The following applies: HEK293 cells expressing the human Glucagon-R, 15 min at 37° C., read-out: GCG-R EC50 in vitro. It is filed as cell-based. How it is done: The 5′-end primers additionally encoded a near-Kozak consensus sequence to ensure efficient translation. […] 48 hr after transfection, cells were seeded for limited dilution cloning and selected with 1 mg/ml G418 in the culture medium.
On the day of analysis, growth medium was removed and the cells were washed once with […] of the included Assay buffer with IBMX. Cells were incubated in […] Assay buffer/IBMX containing increasing concentrations of test peptides for 15 min at 37° C. Then the peptides/Assay buffer was removed and cells were lysed by addition of […] Lysis buffer pr. well and incubation for at least 10 min at room temperature. From each well […] cell lysate was transferred to a 384-well OptiPlate and mixed with Donor and Acceptor beads and incubated for 1 h at room temperature. The cAMP content was measured on an Envision plate reader.
For orientation: In Alpha technology, singlet oxygen from a donor bead excites a nearby acceptor bead.

T1 sequence (P47871 26-477): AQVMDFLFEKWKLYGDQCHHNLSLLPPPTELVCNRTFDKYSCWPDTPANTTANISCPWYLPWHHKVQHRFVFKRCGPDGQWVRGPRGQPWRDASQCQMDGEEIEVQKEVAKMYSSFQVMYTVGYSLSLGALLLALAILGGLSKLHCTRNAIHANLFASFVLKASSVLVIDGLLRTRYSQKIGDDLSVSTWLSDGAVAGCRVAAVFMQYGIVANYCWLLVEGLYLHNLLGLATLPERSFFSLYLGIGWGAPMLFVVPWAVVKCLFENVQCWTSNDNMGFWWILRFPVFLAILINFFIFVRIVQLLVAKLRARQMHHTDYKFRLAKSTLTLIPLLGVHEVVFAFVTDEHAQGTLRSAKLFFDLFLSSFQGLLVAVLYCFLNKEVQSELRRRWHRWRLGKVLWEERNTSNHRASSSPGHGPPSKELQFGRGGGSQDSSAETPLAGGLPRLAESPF

In the case of `CC(C)C[C@H](NC(=O)[C@H](Cc1c[nH]c2ccccc12)NC(=O)[C@H](CCCCN)NC(=O)[C@@H](NC(=O)[C@H](Cc1ccccc1)NC(=O)[C@H](CO)NC(=O)[C@H](CCC(=O)O)NC(=O)[C@H](C)NC(=O)[C@H](CCCNC(=N)N)NC(=O)[C@H](C)NC(=O)C(C)(C)NC(=O)[C@H](CC(=O)O)NC(=O)[C@H](CC(C)C)NC(=O)[C@H](Cc1ccc(O)cc1)NC(=O)[C@H](CCCCN)NC(=O)[C@H](CO)NC(=O)[C@@H](NC(=O)[C@H](CC(=O)O)NC(=O)[C@H](CO)NC(=O)[C@@H](NC(=O)[C@H](Cc1ccccc1)NC(=O)[C@@H](NC(=O)CNC(=O)[C@H](CCC(N)=O)NC(=O)[C@H](CO)NC(=O)[C@@H](N)Cc1c[nH]cn1)[C@@H](C)O)[C@@H](C)O)C(C)C)C(C)C)C(=O)N[C@@H](CCC(=O)O)C(=O)N[C@@H](CO)C(=O)N[C@H](C(=O)O)[C@@H](C)O` [Compound 23] (H-HSQGTFTSDVSKYLD[Aib]ARAESFVKWLEST-OH), in the data set “physchem”, the solubility was at least 1000 µg/mL. Besides, the concentration for a half-maximal effect (EC50) at human Glucagon-R came out at 0.16 nM.
`CC(C)C[C@H](NC(=O)[C@H](Cc1c[nH]c2ccccc12)NC(=O)[C@H](C)NC(=O)[C@@H](NC(=O)[C@H](Cc1ccccc1)NC(=O)[C@H](CCC(=O)O)NC(=O)[C@H](CCC(=O)O)NC(=O)[C@H](C)NC(=O)[C@H](CCCNC(=N)N)NC(=O)[C@H](C)NC(=O)C(C)(C)NC(=O)[C@H](CC(=O)O)NC(=O)[C@H](CC(C)C)NC(=O)[C@H](Cc1ccc(O)cc1)NC(=O)[C@H](CCCCN)NC(=O)[C@H](CO)NC(=O)[C@H](Cc1ccc(O)cc1)NC(=O)[C@H](CC(=O)O)NC(=O)[C@H](CO)NC(=O)[C@@H](NC(=O)[C@H](Cc1ccccc1)NC(=O)[C@@H](NC(=O)CNC(=O)[C@H](CCC(N)=O)NC(=O)[C@H](CO)NC(=O)[C@@H](N)Cc1c[nH]cn1)[C@@H](C)O)[C@@H](C)O)C(C)C)C(=O)N[C@@H](CCC(=O)O)C(=O)N[C@@H](CO)C(=O)N[C@H](C(=O)O)[C@@H](C)O` [Compound 35] (H-HSQGTFTSDYSKYLD[Aib]ARAEEFVAWLEST-OH): the solubility in the data set “physchem” was at least 1000 µg/mL. Besides, on human Glucagon-R, the concentration for a half-maximal effect (EC50) worked out at 0.014 nM.
The matching figures for `CC(C)C[C@H](NC(=O)[C@H](Cc1c[nH]c2ccccc12)NC(=O)[C@H](CCCCN)NC(=O)[C@@H](NC(=O)[C@H](Cc1ccccc1)NC(=O)[C@H](CCC(=O)O)NC(=O)[C@H](CCC(=O)O)NC(=O)[C@H](C)NC(=O)[C@H](CCCNC(=N)N)NC(=O)[C@H](C)NC(=O)C(C)(C)NC(=O)[C@H](CC(=O)O)NC(=O)[C@H](CC(C)C)NC(=O)[C@H](Cc1ccc(O)cc1)NC(=O)[C@H](CCCCN)NC(=O)[C@H](CO)NC(=O)[C@H](Cc1ccc(O)cc1)NC(=O)[C@H](CC(=O)O)NC(=O)[C@H](CO)NC(=O)[C@@H](NC(=O)[C@H](Cc1ccccc1)NC(=O)[C@@H](NC(=O)CNC(=O)[C@H](Cc1c[nH]cn1)NC(=O)[C@H](CO)NC(=O)[C@@H](N)Cc1c[nH]cn1)[C@@H](C)O)[C@@H](C)O)C(C)C)C(=O)N[C@@H](CCC(=O)O)C(=O)N[C@@H](CO)C(=O)N[C@H](C(N)=O)[C@@H](C)O` [Compound 38] (H-HSHGTFTSDYSKYLD[Aib]ARAEEFVKWLEST-NH2): at least 1000 µg/mL and 0.0047 nM.
`CC(C)C[C@H](NC(=O)[C@H](Cc1c[nH]c2ccccc12)NC(=O)[C@H](CCCCN)NC(=O)[C@@H](NC(=O)[C@H](Cc1ccccc1)NC(=O)[C@H](CO)NC(=O)[C@H](CCC(=O)O)NC(=O)[C@H](C)NC(=O)[C@H](CCCNC(=N)N)NC(=O)[C@H](C)NC(=O)C(C)(C)NC(=O)[C@H](CC(=O)O)NC(=O)[C@H](CC(C)C)NC(=O)[C@H](Cc1ccc(O)cc1)NC(=O)[C@H](CCCCN)NC(=O)[C@H](CO)NC(=O)[C@H](Cc1ccc(O)cc1)NC(=O)[C@H](CC(=O)O)NC(=O)[C@H](CO)NC(=O)[C@@H](NC(=O)[C@H](Cc1ccccc1)NC(=O)[C@@H](NC(=O)CNC(=O)[C@H](CCC(N)=O)NC(=O)[C@H](C)NC(=O)[C@@H](N)Cc1c[nH]cn1)[C@@H](C)O)[C@@H](C)O)C(C)C)C(=O)N[C@@H](CCC(=O)O)C(=O)N[C@@H](CO)C(=O)N[C@H](C(=O)O)[C@@H](C)O` [Compound 20] (H-HAQGTFTSDYSKYLD[Aib]ARAESFVKWLEST-OH) yielded a solubility in the data set “physchem” of at least 1000 µg/mL. In addition, on human Glucagon-R, the EC50 is 0.24 nM.
As to “H-HSQGTFTSDYSKYLESARAEDFVKWLEST-OH [Compound 8]”, in “physchem”, the solubility was at least 1000 µg/mL. Besides, the EC50 on human Glucagon-R turned out to be 0.38 nM.
The compound `CC(C)C[C@H](NC(=O)[C@H](Cc1c[nH]c2ccccc12)NC(=O)[C@H](CCCCN)NC(=O)[C@@H](NC(=O)[C@H](Cc1ccccc1)NC(=O)[C@H](CCC(=O)O)NC(=O)[C@H](CCC(=O)O)NC(=O)[C@H](C)NC(=O)[C@H](CCCNC(=N)N)NC(=O)[C@H](C)NC(=O)C(C)(C)NC(=O)[C@H](CCC(=O)O)NC(=O)[C@H](CC(C)C)NC(=O)[C@H](Cc1ccc(O)cc1)NC(=O)[C@H](CCCCN)NC(=O)[C@H](CO)NC(=O)[C@H](Cc1ccc(O)cc1)NC(=O)[C@H](CC(=O)O)NC(=O)[C@H](CO)NC(=O)[C@@H](NC(=O)[C@H](Cc1ccccc1)NC(=O)[C@@H](NC(=O)CNC(=O)[C@H](CCC(N)=O)NC(=O)[C@H](CO)NC(=O)[C@@H](N)Cc1c[nH]cn1)[C@@H](C)O)[C@@H](C)O)C(C)C)C(=O)N[C@@H](CCC(=O)O)C(=O)N[C@@H](CO)C(=O)N[C@H](C(=O)O)[C@@H](C)O` [Compound 37] (H-HSQGTFTSDYSKYLE[Aib]ARAEEFVKWLEST-OH) displayed a solubility in “physchem” of at least 1000 µg/mL. For the same compound, the EC50 at human Glucagon-R is 0.094 nM.
The matching figures for “H-HSQGTFTSDYSKYLDSARAEDFVEWLEST-OH [Compound 6]”: at least 1000 µg/mL and 1 nM.
The matching figures for “H-HSQGTFTSDYSKYLDEARAKSFVEWLEST-OH [Compound 28]”: at least 1000 µg/mL and 0.035 nM.
The like results for “H-HSQGTFTSDYSKYLDEARAKSFVEWLEKT-OH [Compound 27]” were, in that order, at least 1000 µg/mL and 0.063 nM.
On to `CC(=O)NCC[C@H](NC(=O)[C@H](CO)NC(=O)[C@@H](N)Cc1c[nH]cn1)C(=O)NCC(=O)N[C@H](C(=O)N[C@@H](Cc1ccccc1)C(=O)N[C@H](C(=O)N[C@@H](CO)C(=O)N[C@@H](CC(=O)O)C(=O)N[C@@H](Cc1ccc(O)cc1)C(=O)N[C@@H](CO)C(=O)N[C@@H](CCCCN)C(=O)N[C@@H](Cc1ccc(O)cc1)C(=O)N[C@@H](CC(C)C)C(=O)N[C@@H](CC(=O)O)C(=O)NC(C)(C)C(=O)N[C@@H](C)C(=O)N[C@@H](CCCNC(=N)N)C(=O)N[C@@H](C)C(=O)N[C@@H](CCC(=O)O)C(=O)N[C@@H](CCC(=O)O)C(=O)N[C@@H](Cc1ccccc1)C(=O)N[C@H](C(=O)N[C@@H](CCCCN)C(=O)N[C@@H](Cc1c[nH]c2ccccc12)C(=O)N[C@@H](CC(C)C)C(=O)N[C@@H](CCC(=O)O)C(=O)N[C@@H](CO)C(=O)N[C@H](C(N)=O)[C@@H](C)O)C(C)C)[C@@H](C)O)[C@@H](C)O` [Compound 40] (H-HS[Dab](Ac)GTFTSDYSKYLD[Aib]ARAEEFVKWLEST-NH2), for which the solubility in “physchem” is at least 1000 µg/mL. On human Glucagon-R, the EC50 was 0.0035 nM.
Consider “H-HSQGTFTSDYSRYLESARAEDFVKWLEST-OH [Compound 7]”, for which, in “physchem”, the solubility is at least 1000 µg/mL. For the same compound, on human Glucagon-R, the EC50 came to 0.93 nM.

What is called solubility is the concentration that dissolves in the medium under given conditions. For orientation: EC50 means the concentration at which the effect is half-maximal.
